Where “and” joins values, the source holds several entries; their conditions need not be identical. Equal entries are not always repeated. Inconclusive results and toxic doses are left out. Rule as the data show it: active = T/C of 150% or more; inactive = T/C below 125%.
System: L1210 leukemia ip in BDF1 mice, survival T/C
Assay: NCI In Vivo Anticancer Drug Screen. Data for tumor model L1210 Leukemia (intraperitoneal) in B6D2F1 (BDF1) mice
Settings: endpoint: mean survival time, higher = longer survival
Procedure, shortened: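 Mice bearing the transplanted tumor received compound or vehicle. Survival of the treated group was divided by that of the vehicle-treated control group to give the ratio.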

[1] = dose: 100.0 mg/kg/injection, schedule: Q01DX009 (ip), vehicle: Klucel (hydroxypropylcellulose) (HPC)
[2] = dose: 200.0 mg/kg/injection, schedule: Q01DX009 (ip), vehicle: Klucel (hydroxypropylcellulose) (HPC)
[3] = dose: 400.0 mg/kg/injection, schedule: Q01DX009 (ip), vehicle: Klucel (hydroxypropylcellulose) (HPC)
[4] = dose: 100.0 mg/kg/injection, schedule: Q01DX001 (ip), vehicle: saline
[5] = dose: 200.0 mg/kg/injection, schedule: Q01DX001 (ip), vehicle: saline
[6] = dose: 100.0 mg/kg/injection, schedule: Q04DX003 (ip), vehicle: Klucel (hydroxypropylcellulose) (HPC)
[7] = dose: 200.0 mg/kg/injection, schedule: Q04DX003 (ip), vehicle: Klucel (hydroxypropylcellulose) (HPC)
[8] = dose: 400.0 mg/kg/injection, schedule: Q04DX003 (ip), vehicle: Klucel (hydroxypropylcellulose) (HPC)
[9] = dose: 100.0 mg/kg/injection, schedule: Q01DX001 (ip), vehicle: other
[10] = dose: 200.0 mg/kg/injection, schedule: Q01DX001 (ip), vehicle: other
[11] = dose: 400.0 mg/kg/injection, schedule: Q01DX001 (ip), vehicle: other
[12] = dose: 100.0 mg/kg/injection, schedule: Q01DX001 (ip), vehicle: carboxymethylcellulose (CMC)
[13] = dose: 200.0 mg/kg/injection, schedule: Q01DX001 (ip), vehicle: carboxymethylcellulose (CMC)
[14] = dose: 400.0 mg/kg/injection, schedule: Q01DX001 (ip), vehicle: carboxymethylcellulose (CMC)
[15] = dose: 50.0 mg/kg/injection, schedule: Q04DX003 (ip), vehicle: saline with Tween-80
[16] = dose: 100.0 mg/kg/injection, schedule: Q04DX003 (ip), vehicle: saline with Tween-80

Measured: T/C

NC(CSC(c1ccccc1)(c1ccccc1)c1ccc(Cl)cc1)C(=O)O (stereo unspecified)
inactive: dose: 1.3 mg/kg/injection, schedule: Q01DX009 (ip), vehicle: saline 100 % of control | dose: 2.0 mg/kg/injection, schedule: Q01DX009 (ip), vehicle: saline 118 % of control
active: dose: 6.25 mg/kg/injection, schedule: Q01DX009 (ip), vehicle: acetone 151 % of control | dose: 12.5 mg/kg/injection, schedule: Q01DX009 (ip), vehicle: acetone 156 % of control | dose: 12.5 mg/kg/injection, schedule: Q01DX009 (ip), vehicle: other 163 % of control

O=C(O)CCCCCNC(=O)OCc1ccccc1
inactive: dose: 100.0 mg/kg/injection, schedule: Q01DX009 (ip), vehicle: gum acacia 102 % of control | dose: 100.0 mg/kg/injection, schedule: Q04DX003 (ip), vehicle: gum acacia 91 % of control | dose: 200.0 mg/kg/injection, schedule: Q01DX009 (ip), vehicle: gum acacia 103 % of control | dose: 200.0 mg/kg/injection, schedule: Q04DX003 (ip), vehicle: gum acacia 93 % of control | dose: 400.0 mg/kg/injection, schedule: Q01DX009 (ip), vehicle: gum acacia 86 % of control | dose: 400.0 mg/kg/injection, schedule: Q04DX003 (ip), vehicle: gum acacia 91 % of control

O=S1(=O)CCC(N(N=C2CCCCC2)c2ccccc2)C1 (stereo unspecified)
inactive: dose: 50.0 mg/kg/injection, schedule: Q01DX009 (ip), vehicle: Klucel (hydroxypropylcellulose) (HPC) 95 % of control | [1] 98 % of control | [2] 106 % of control | [3] 95 % of control

CC1CC(C)CC(C)C(O)/C(C#N)=C/C=C/CC(C2CCCC2C(=O)O)OC(=O)CC(O)C(C)C1 (stereo unspecified)
inactive: dose: 0.5 mg/kg/injection, schedule: Q01DX009 (ip), vehicle: saline with Tween-80 98 % of control | dose: 1.0 mg/kg/injection, schedule: Q01DX009 (ip), vehicle: saline with Tween-80 104 % of control | dose: 2.0 mg/kg/injection, schedule: Q01DX009 (ip), vehicle: saline with Tween-80 96 % of control

O=C1Nc2ccc3c4c(ccc1c24)CC3
inactive: dose: 50.0 mg/kg/injection, schedule: Q01DX001 (ip), vehicle: saline 104 % of control | [4] 95 % of control | [5] 98 % of control | dose: 400.0 mg/kg/injection, schedule: Q01DX001 (ip), vehicle: saline 98 % of control

Cc1ccc(NC(=O)c2ccc(Cl)cc2)c(C)c1
inactive: [1] 94 % of control | [6] 106 % of control | [2] 100 % of control | [7] 96 % of control | [8] 98 % of control

CCOC(=O)C(C1=NC(C)(C)CC(C)O1)C(C[N+](=O)[O-])c1ccccc1 (stereo unspecified)
inactive: [9] 97 % of control | [10] 97 % of control | [11] 100 % of control

COc1ccc(-n2c(=O)c(N=Nc3ccccc3OC)c(O)n(-c3ccc(C)cc3)c2=S)cc1
inactive: dose: 50.0 mg/kg/injection, schedule: Q01DX001 (ip), vehicle: Klucel (hydroxypropylcellulose) (HPC) 92 % of control | dose: 100.0 mg/kg/injection, schedule: Q01DX001 (ip), vehicle: Klucel (hydroxypropylcellulose) (HPC) 89 % of control | dose: 200.0 mg/kg/injection, schedule: Q01DX001 (ip), vehicle: Klucel (hydroxypropylcellulose) (HPC) 91 % of control

NC(=O)C1C2CC3OC(=O)C1C3C2 (stereo unspecified)
inactive: dose: 100.0 mg/kg/injection, schedule: Q04DX003 (ip), vehicle: saline 93 % of control and 103 % of control | dose: 200.0 mg/kg/injection, schedule: Q04DX003 (ip), vehicle: saline 102 % of control and 100 % of control | dose: 400.0 mg/kg/injection, schedule: Q04DX003 (ip), vehicle: saline 96 % of control and 88 % of control

CCCNC(C)(C)C(SS)c1ccc(Cl)cc1 (stereo unspecified)
inactive: dose: 100.0 mg/kg/injection, schedule: Q01DX009 (ip), vehicle: saline sonified 97 % of control | dose: 100.0 mg/kg/injection, schedule: Q04DX003 (ip), vehicle: saline sonified 106 % of control | dose: 200.0 mg/kg/injection, schedule: Q01DX009 (ip), vehicle: saline sonified 107 % of control | dose: 200.0 mg/kg/injection, schedule: Q04DX003 (ip), vehicle: saline sonified 95 % of control | dose: 400.0 mg/kg/injection, schedule: Q01DX009 (ip), vehicle: saline sonified 96 % of control | dose: 400.0 mg/kg/injection, schedule: Q04DX003 (ip), vehicle: saline sonified 95 % of control

CC(=O)OCC1OC(S[As](C)C)C(OC(C)=O)C(OC(C)=O)C1OC(C)=O (stereo unspecified)
inactive: [1] 101 % of control | [6] 101 % of control | [2] 103 % of control | [7] 100 % of control | [8] 100 % of control

Cn1c(=O)c2[nH]c(-c3ccc4c(c3)OCO4)nc2n(C)c1=O
inactive: dose: 50.0 mg/kg/injection, schedule: Q01DX001 (ip), vehicle: other 95 % of control | [9] 97 % of control | [10] 95 % of control | [11] 86 % of control

COc1ccc2cc(OC)ccc2c1
inactive: dose: 100.0 mg/kg/injection, schedule: Q01DX001 (ip), vehicle: saline sonified 98 % of control | dose: 200.0 mg/kg/injection, schedule: Q01DX001 (ip), vehicle: saline sonified 96 % of control | dose: 400.0 mg/kg/injection, schedule: Q01DX001 (ip), vehicle: saline sonified 96 % of control

N/C(=N/N=C/c1cc(Cl)ccc1O)N/N=C\c1cc(Cl)ccc1O
inactive: dose: 15.0 mg/kg/injection, schedule: Q01DX Z (ip), vehicle: methylcellulose (MC) 107 % of control | dose: 30.0 mg/kg/injection, schedule: Q01DX Z (ip), vehicle: methylcellulose (MC) 104 % of control | dose: 60.0 mg/kg/injection, schedule: Q01DX Z (ip), vehicle: methylcellulose (MC) 119 % of control | dose: 60.0 mg/kg/injection, schedule: Q01DX Z (oral), vehicle: methylcellulose (MC) 94 % of control | dose: 120.0 mg/kg/injection, schedule: Q01DX Z (ip), vehicle: methylcellulose (MC) 108 % of control | dose: 120.0 mg/kg/injection, schedule: Q01DX Z (oral), vehicle: methylcellulose (MC) 93 % of control | dose: 240.0 mg/kg/injection, schedule: Q01DX Z (oral), vehicle: methylcellulose (MC) 100 % of control

Cc1ccc(S(=O)(=O)Nc2ccccc2N=Cc2ccc(N(CCCl)CCCl)cc2)cc1
inactive: [12] 115 % of control | [13] 106 % of control | [14] 90 % of control

Cc1cc(Cc2cccc[n+]2[O-])c2ccccc2n1
inactive: [6] 102 % of control | [7] 96 % of control

Fc1cccc(CSC(=S)Nc2ccc(Cl)c(Cl)c2)c1
inactive: [15] 101 % of control | [16] 104 % of control

S=c1nc[nH]c2nc(N=Nc3cc(Cl)ccc3Cl)[nH]c12
inactive: [4] 101 % of control | [5] 97 % of control

COc1cc(Cl)ccc1NC(=O)Oc1ccc(OCc2ccccc2)cc1
inactive: [1] 94 % of control | [2] 94 % of control | [3] 97 % of control

NC(N)=NNC(=S)S
inactive: dose: 25.0 mg/kg/injection, schedule: Q01DX009 (ip), vehicle: saline with Tween-80 102 % of control | dose: 50.0 mg/kg/injection, schedule: Q01DX009 (ip), vehicle: saline with Tween-80 110 % of control | [15] 95 % of control | [16] 92 % of control

CCCC[n+]1cccc(C(=O)c2ccccc2)c1
inactive: dose: 75.0 mg/kg/injection, schedule: Q01DX001 (ip), vehicle: saline 101 % of control

S=P(c1ccccc1)(c1ccccc1)c1ccccc1
inactive: dose: 50.0 mg/kg/injection, schedule: Q04DX002 (ip), vehicle: saline 96 % of control | dose: 100.0 mg/kg/injection, schedule: Q04DX002 (ip), vehicle: saline 93 % of control | dose: 200.0 mg/kg/injection, schedule: Q04DX002 (ip), vehicle: saline 96 % of control

O=[N+]([O-])c1ccc(S(=O)CCl)cc1 (stereo unspecified)
inactive: [6] 98 % of control | [7] 105 % of control

CC(=O)OC1=C(OC(C)=O)N(S(=O)(=O)c2ccc(C)cc2)CCc2ccccc21
inactive: [12] 97 % of control | [13] 94 % of control | [14] 100 % of control

— PubChem BioAssay AID248 (DTP/NCI, 2004)
